The text below walks through data of EP1131337B1 (DABUR PHARMA LTD., priority 1998, dated 2000).

Values after ≈ are worked out from the molar mass of the structure shown.

One data set deals with human melanomas. Conditions: athymic mice carrying human melanomas; Nature Medicine 1995, WO 96/29068; cited from earlier work.
For data set [1], the system named is lung cancer cells (L 132). Put plainly: MTT cytotoxicity assay, lung cancer. The class given is cell-based, human. Conditions: 72 hours. As for the experimental part:
(§1) After 72 hours, the assay was terminated and percent cyotoxicities calculated.
On the technique in general: Tetrazolium assays rely on reduction of a dye to a coloured formazan, in cell work by metabolically active cells.

The test system of data set [2] is ovarian cancer cells (PA-1). Put plainly: MTT cytotoxicity assay, ovarian cancer. Conditions: 72 hours. The class given is cell-based, human. As for the experimental part: as §1
Data set [3] has as its system colon cancer cells (HT29). Put plainly: MTT cytotoxicity assay, colon cancer. The class given is cell-based, human. Conditions: 72 hours. As for the experimental part:
as §1

Data set [4] concerns laryngeal cancer cells(HeP.2). Put plainly: MTT cytotoxicity assay, laryngeal cancer. The class given is cell-based, human. Conditions: 72 hours. As for the experimental part: as §1
For a further data set, the system named is human leukemia (MOLT-4). Put plainly: MTT cytotoxicity assay, leukemia. The class given is cell-based. Conditions: 72 hours. As for the experimental part:
as §1

Data set [5] deals with prostate cancer cells (DU 145). The experiment in a line: MTT cytotoxicity assay, prostate cancer. The following applies: 72 hours. The class given is cell-based, human. As for the experimental part:
as §1

The next data set deals with lymphoma cells (U937). Put plainly: MTT cytotoxicity assay, lymphoma. The class given is cell-based, human. The following applies: 72 hours. As for the experimental part:
as §1

The subject of data set [6] is P388 lymphocytic leukemia cells. The following applies: Choi et al., Planta Medica 1988; cited from earlier work.

Turning to `C=C(C)[C@@H]1CC[C@]2(C(=O)O)CC[C@]3(C)[C@H](CC[C@@H]4[C@@]5(C)CC[C@H](O)C(C)(C)[C@@H]5CC[C@]43C)[C@@H]12` [betulinic acid], in the data set on human melanomas, the toxicity result is on record as “without toxicity”.
Regarding `CC(C)C1CCC2(C(=O)O)CCC3(C)C(CCC4C5(C)CCC(=NOCc6ccc([N+](=O)[O-])cc6)C(C)(C)C5CCC43C)C12` (stereo not shown) [compound 1098], the “ED50 Lung L132” value in data set [1] worked out at 1.3 µg/mL (≈ 2.14 µM). In [2], the “ED50 Ovary PA-1” value came to 0.9 µg/mL (≈ 1.48 µM). Further, the “ED50 Colon HT-29” value in [3] was determined as 2.6 µg/mL (≈ 4.28 µM). For the same compound, the “ED50 Larynx Hep.2” value in [4] amounted to 1.0 µg/mL (≈ 1.65 µM). Further, the “ED50 Leukemia MOLT-4” value in the data set on human leukemia (MOLT-4) turned out to be 0.5 µg/mL (≈ 0.824 µM). Moreover, the “ED50 Prostate DU145” value in [5] was found to be 1.5 µg/mL (≈ 2.47 µM). For the same compound, the “ED50 Lymphoma 0 937” value in the data set with lymphoma cells (U937) was found to be 0.4 µg/mL (≈ 0.659 µM).
For the compound `C=C(C)[C@@H]1CC[C@]2(C(=O)OC)CC[C@]3(C)[C@H](CC[C@@H]4[C@@]5(C)CC[C@H](O)C(C)(C)[C@@H]5CC[C@]43C)[C@@H]12` [betulinic acid methyl ester], in [6], the ED50 was 6.8 µg/mL (≈ 14.4 µM).
For the compound `C=C(C)[C@@H]1CC[C@]2(C(=O)O)CC[C@]3(C)[C@H](CC[C@@H]4[C@@]5(C)CC[C@H](OC(C)=O)C(C)(C)[C@@H]5CC[C@]43C)[C@@H]12` [betulinic acid 3-monoacetate], the ED50 in [6] was 10.5 µg/mL (≈ 21.1 µM).
